Structures are written as SMILES.

For this assay, the target named is T1, CFTR (F508del/MF-HBE cells) (Homo sapiens, UniProt P13569, DEL508-508).
T1 construct: human bronchial epithelial (HBE) cells derived from CF subjects heterozygous for F508del and a minimal function CFTR mutation; endogenous in cells; host or cells: primary human bronchial epithelial cells from CF subjects (F508del/MF genotype)
T1 sequence (P13569 with tags, fused parts or gaps DEL508-508): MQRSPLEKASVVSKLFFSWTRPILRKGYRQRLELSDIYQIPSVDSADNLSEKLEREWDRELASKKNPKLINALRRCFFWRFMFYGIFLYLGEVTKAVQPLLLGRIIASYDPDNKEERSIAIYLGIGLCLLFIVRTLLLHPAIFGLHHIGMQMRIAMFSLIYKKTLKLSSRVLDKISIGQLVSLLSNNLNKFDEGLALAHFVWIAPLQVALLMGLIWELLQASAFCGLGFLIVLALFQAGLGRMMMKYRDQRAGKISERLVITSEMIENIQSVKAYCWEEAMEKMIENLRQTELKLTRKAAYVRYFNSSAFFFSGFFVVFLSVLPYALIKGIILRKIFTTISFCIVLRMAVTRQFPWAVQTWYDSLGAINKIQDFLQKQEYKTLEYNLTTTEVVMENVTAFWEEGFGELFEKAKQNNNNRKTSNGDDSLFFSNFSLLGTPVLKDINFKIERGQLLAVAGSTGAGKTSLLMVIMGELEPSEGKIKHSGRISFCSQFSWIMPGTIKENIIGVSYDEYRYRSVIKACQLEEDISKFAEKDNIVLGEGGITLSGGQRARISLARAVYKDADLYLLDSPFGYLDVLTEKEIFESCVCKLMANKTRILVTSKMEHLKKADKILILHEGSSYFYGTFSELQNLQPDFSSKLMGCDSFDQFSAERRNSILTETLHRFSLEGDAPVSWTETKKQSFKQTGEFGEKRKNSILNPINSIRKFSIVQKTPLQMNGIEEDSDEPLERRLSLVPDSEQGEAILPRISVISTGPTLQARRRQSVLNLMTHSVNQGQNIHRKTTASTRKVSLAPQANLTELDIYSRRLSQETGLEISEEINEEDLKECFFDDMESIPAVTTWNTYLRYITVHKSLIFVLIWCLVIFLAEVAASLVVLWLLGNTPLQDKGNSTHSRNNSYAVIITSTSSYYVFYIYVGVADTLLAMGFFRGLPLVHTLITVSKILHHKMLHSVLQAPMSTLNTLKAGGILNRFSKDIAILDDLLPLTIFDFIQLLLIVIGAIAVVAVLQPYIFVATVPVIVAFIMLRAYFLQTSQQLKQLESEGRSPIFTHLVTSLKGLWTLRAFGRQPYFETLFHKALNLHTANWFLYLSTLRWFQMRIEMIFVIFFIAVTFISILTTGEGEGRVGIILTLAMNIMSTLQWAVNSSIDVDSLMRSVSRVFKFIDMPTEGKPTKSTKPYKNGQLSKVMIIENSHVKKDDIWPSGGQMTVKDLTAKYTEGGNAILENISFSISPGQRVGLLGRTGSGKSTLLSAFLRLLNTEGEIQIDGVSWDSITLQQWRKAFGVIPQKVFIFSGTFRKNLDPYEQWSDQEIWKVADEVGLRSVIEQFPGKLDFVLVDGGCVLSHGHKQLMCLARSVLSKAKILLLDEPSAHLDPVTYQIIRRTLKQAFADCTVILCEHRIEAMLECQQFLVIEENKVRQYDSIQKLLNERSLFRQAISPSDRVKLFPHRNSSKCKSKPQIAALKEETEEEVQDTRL
In words: Ussing chamber assay of CFTR-mediated short-circuit currents (identification of potentiator compounds). In kind it is cell-based. The following applies: CFTR-mediated ISC in F508del/MF-HBE cells; incubated 18-24 hours at 37° C. with 10 μM (14S)-8-[3-(2-{dispiro[2.0.2.1]heptan-7-yl}ethoxy)-1H-pyrazol-1-yl]-...-2,2,4-trione, 20% human serum. Here is the method:
Ussing Chamber Assay of CFTR-Mediated Short-Circuit Currents
Ussing chamber experiments were performed using human bronchial epithelial (HBE) cells derived from CF subjects heterozygous for F508del and a minimal function CFTR mutation (F508del/MF-HBE) and cultured as previously described (Neuberger T, Burton B, Clark H, Van Goor F Methods Mol Biol 2011:741:39-54). After four days the apical media was removed, and the cells were grown at an air liquid interface for >14 days prior to use.
To isolate the CFTR-mediated short-circuit (ISC) current, F508del/MF-HBE grown on Costar® Snapwell™ cell culture inserts were mounted in an Ussing chamber and the transepithelial ISC was measured under voltage-clamp recording conditions (Vhold=0 mV) at 37° C. The basolateral solution contained (in mM) 145 NaCl, 0.83 K2HPO4, 3.3 KH2PO4, 1.2 MgCl2, 1.2 CaCl2), 10 Glucose, 10 HEPES (pH adjusted to 7.4 with NaOH) and the apical solution contained (in mM) 145 NaGluconate, 1.2 MgCl2, 1.2 CaCl2), 10 glucose, 10 HEPES (pH adjusted to 7.4 with NaOH) and 30 μM amiloride to block the epithelial sodium channel. Forskolin (20 μM) was added to the apical surface to activate CFTR, followed by apical addition of a CFTR inhibitor cocktail consisting of BPO, GlyH-101 and CFTR inhibitor 172 (each at 20 μM final assay concentration) to specifically isolate CFTR currents. The CFTR-mediated ISC (μA/cm^2) for each condition was determined from the peak forskolin response to the steady-state current following inhibition.
Identification of Potentiator Compounds
The activity of the CFTR potentiator compounds on the CFTR-mediated ISC was determined in Ussing chamber studies as described above. The F508del/MF-HBE cell cultures were incubated with the potentiator compounds at a range of concentrations in combination with 10 μM (14S)-8-[3-(2-{dispiro[2.0.2.1]heptan-7-yl}ethoxy)-1H-pyrazol-1-yl]-12,12-dimethyl-2λ^6-thia-3,9,11,18,23-pentaazatetracyclo [17.3.1.111,14.05,10]tetracosa-1(22),5,7,9,19(23),20-hexaene-2,2,4-trione for 18-24 hours at 37° C. and in the presence of 20% human serum. The concentration of potentiator compounds and (14S)-8-[3-(2-{dispiro[2.0.2.1]heptan-7-yl}ethoxy)-1H-pyrazol-1-yl]-12,12-dimethyl-2λ^6-thia-3,9,11,18,23-pentaazatetracyclo [17.3.1.111,14.05,10]tetracosa-1(22),5,7,9,19(23),20-hexaene-2,2,4-trione used during the 18-24 hours incubations was kept constant throughout the Ussing chamber measurement of the CFTR-mediated ISC to ensure compounds were present throughout the entire experiment. The efficacy and potency of the putative F508del potentiators was compared to that of the known Vertex potentiator, ivacaftor (N-[2,4-bis(1,1-dimethylethyl)-5-hydroxyphenyl]-1,4-dihydro-4-oxoquinoline-3-carboxamide).
Consider `Nc1cc(C(F)(F)F)c2nc1-c1nnc(o1)C(O)CCCCC[C@@H]1CCCN21` (single isomer, unassigned) [Compound 21], for which the 50% effective concentration (EC50) was less than 500 nM. Under `Nc1cc(C(F)(F)F)c2nc1-c1nnc(o1)C(O)(C(F)(F)F)CCCCCCC1CCCN21` (single isomer, unassigned) [Compound 23, 21-amino-6,19-bis(trifluoromethyl)-23-oxa-3,4,17,22-tetraazatetracyclo[16.3.1.12,5.013,17]tricosa-1(22),2,4,18,20-pentaen-6-ol] stands less than 500 nM; under `Nc1cc(C(F)(F)F)c2nc1-c1nnc(o1)C(O)(C(F)(F)F)CCCCCCC1CCCN21` (single isomer, unassigned) [Compound 24, 21-amino-6,19-bis(trifluoromethyl)-23-oxa-3,4,17,22-tetraazatetracyclo[16.3.1.12,5.013,17]tricosa-1(22),2,4,18,20-pentaen-6-ol], less than 500 nM; under `Nc1cc(C(F)(F)F)c2nc1-c1nnc(o1)C(O)(C(F)(F)F)CCCCCCC1CCCN21` (single isomer, unassigned) [Compound 25, 21-amino-6,19-bis(trifluoromethyl)-23-oxa-3,4,17,22-tetraazatetracyclo[16.3.1.12,5.013,17]tricosa-1(22),2,4,18,20-pentaen-6-ol], less than 500 nM. Under `Nc1cc(C(F)(F)F)c2nc1-c1nnc(o1)C(O)(C(F)(F)F)CCCCCCC1CCCN21` (single isomer, unassigned) [Compound 26, 21-amino-6,19-bis(trifluoromethyl)-23-oxa-3,4,17,22-tetraazatetracyclo[16.3.1.12,5.013,17]tricosa-1(22),2,4,18,20-pentaen-6-ol] stands more than 1000 nM; under `CC1(C)CC2CCCCCC(O)(C(F)(F)F)C3=NN=C(O3)c3nc(c(C(F)(F)F)cc3N)N2C1` (single isomer, unassigned) [Compound 29, 20-amino-14,14-dimethyl-6,18-bis(trifluoromethyl)-22-oxa-3,4,16,21-tetraazatetracyclo[15.3.1.12,5.012,16]docosa-1(21),2,4,17,19-pentaen-6-ol], less than 500 nM. Under `Nc1cc(C(F)(F)F)c2nc1-c1nnc(o1)C(O)(C(F)(F)F)CCCC[C@@H]1CCCN21` (single isomer, unassigned) [Compound 32] stands less than 500 nM.

As to `Nc1cc(C(F)(F)F)c2nc1-c1nnc(o1)C(O)(C(F)(F)F)CCCC[C@@H]1CCCN21` (single isomer, unassigned) [Compound 33], the concentration giving a half-maximal response (EC50) is more than 1000 nM. Under `COCCN1CCCCCCC(O)(C(F)(F)F)C2=NN=C(O2)c2nc1c(C(F)(F)F)cc2N` (single isomer, unassigned) [Compound 34, 17-amino-13-(2-methoxyethyl)-6,15-bis(trifluoromethyl)-19-oxa-3,4,13,18-tetrazatricyclo[12.3.1.12,5]nonadeca-1(18),2,4,14,16-pentaen-6-ol] stands less than 500 nM. Under `COCCN1CCCCCCC(O)(C(F)(F)F)C2=NN=C(O2)c2nc1c(C(F)(F)F)cc2N` (single isomer, unassigned) [Compound 35, 17-amino-13-(2-methoxyethyl)-6,15-bis(trifluoromethyl)-19-oxa-3,4,13,18-tetrazatricyclo[12.3.1.12,5]nonadeca-1(18),2,4,14,16-pentaen-6-ol] stands more than 1000 nM. With `Nc1cc(C(F)(F)F)c2nc1-c1nnc(o1)C(O)(C(F)(F)F)CCCC(=O)N1CCN2CC1` (single isomer, unassigned) [Compound 37, 5-amino-11-hydroxy-3,11-bis(trifluoromethyl)-21-oxa-1,8,9,16,22-pentaazatetracyclo[14.2.2.12,6.17,10]docosa-2,4,6(22),7,9-pentaen-15-one], the EC50 was less than 500 nM. Regarding `Nc1cc(C(F)(F)F)c2nc1-c1nnc(o1)C(O)(C(F)(F)F)CCCC(=O)N1CCN2CC1` (single isomer, unassigned) [Compound 38, 5-amino-11-hydroxy-3,11-bis(trifluoromethyl)-21-oxa-1,8,9,16,22-pentaazatetracyclo[14.2.2.12,6.17,10]docosa-2,4,6(22),7,9-pentaen-15-one], the EC50 is more than 1000 nM. Under `CN1CCCCCCC(O)(C(F)(F)F)C2=NN=C(O2)c2nc1c(S(C)(=O)=O)cc2N` (single isomer, unassigned) [Compound 39, 17-amino-13-methyl-15-methylsulfonyl-6-(trifluoromethyl)-19-oxa-3,4,13,18-tetrazatricyclo[12.3.1.12,5]nonadeca-1(18),2,4,14,16-pentaen-6-ol] stands less than 500 nM; under `CN1CCCCCCC(O)(C(F)(F)F)C2=NN=C(O2)c2nc1c(S(C)(=O)=O)cc2N` (single isomer, unassigned) [Compound 40, 17-amino-13-methyl-15-methylsulfonyl-6-(trifluoromethyl)-19-oxa-3,4,13,18-tetrazatricyclo[12.3.1.12,5]nonadeca-1(18),2,4,14,16-pentaen-6-ol], 500 to 1000 nM.

On to `Nc1cc(C(F)(F)F)c2nc1-c1nnc(o1)C(O)(C(F)(F)F)CCCCCCN2CCO` (single isomer, unassigned) [Compound 41, 17-amino-13-(2-hydroxyethyl)-6,15-bis(trifluoromethyl)-19-oxa-3,4,13,18-tetrazatricyclo[12.3.1.12,5]nonadeca-1(18),2,4,14,16-pentaen-6-ol], for which the 50% effective concentration (EC50) was less than 500 nM.

`CN1CCN(C)c2nc(c(N)cc2C(F)(F)F)C2=NN=C(O2)C(O)(C(F)(F)F)CCC1=O` (single isomer, unassigned) [Compound 44, 17-amino-6-hydroxy-10,13-dimethyl-6,15-bis(trifluoromethyl)-19-oxa-3,4,10,13,18-pentazatricyclo[12.3.1.12,5]nonadeca-1(18),2,4,14,16-pentaen-9-one]: the EC50 fell in the range of 500 to 1000 nM. Under `CC1(O)CCCCC[C@@H]2CCCN2c2nc(c(N)cc2C(F)(F)F)C2=NN=C1O2` (single isomer, unassigned) [Compound 45] stands less than 500 nM; under `CCOC(=O)CN1CCCCCCC(O)(C(F)(F)F)C2=NN=C(O2)c2nc1c(C(F)(F)F)cc2N` (single isomer, unassigned) [Compound 46, ethyl 2-[17-amino-6-hydroxy-6,15-bis(trifluoromethyl)-19-oxa-3,4,13,18-tetrazatricyclo[12.3.1.12,5]nonadeca-1(18),2,4,14,16-pentaen-13-yl]acetate], less than 500 nM. Under `CNC(=O)CN1CCCCCCC(O)(C(F)(F)F)C2=NN=C(O2)c2nc1c(C(F)(F)F)cc2N` (single isomer, unassigned) [Compound 48, 2-[17-amino-6-hydroxy-6,15-bis(trifluoromethyl)-19-oxa-3,4,13,18-tetrazatricyclo[12.3.1.12,5]nonadeca-1(18),2,4,14,16-pentaen-13-yl]-N-methyl-acetamide] stands less than 500 nM; under `Cc1cc(N)c2nc1N1CCC[C@H]1CCCCCC(O)(C(F)(F)F)C1=NN=C2O1` (single isomer, unassigned) [Compound 51], less than 500 nM; under `CC(C)N1CCCCCCC(O)(C(F)(F)F)C2=NN=C(O2)c2nc1c(C(F)(F)F)cc2N` (single isomer, unassigned) [Compound 52, 17-amino-13-isopropyl-6,15-bis(trifluoromethyl)-19-oxa-3,4,13,18-tetrazatricyclo[12.3.1.12,5]nonadeca-1(18),2,4,14,16-pentaen-6-ol], less than 500 nM. Under `CC(C)N1CCCCCCC(O)(C(F)(F)F)C2=NN=C(O2)c2nc1c(C(F)(F)F)cc2N` (single isomer, unassigned) [Compound 53, 17-amino-13-isopropyl-6,15-bis(trifluoromethyl)-19-oxa-3,4,13,18-tetrazatricyclo[12.3.1.12,5]nonadeca-1(18),2,4,14,16-pentaen-6-ol] stands more than 1000 nM; under `Nc1cc(C(F)(F)F)c2nc1-c1nnc(o1)C(O)(C(F)(F)F)CCCCC[C@@H]1COCCN21` (single isomer, unassigned) [Compound 54], less than 500 nM.

For the origin of these results see US12324802B2, “Modulators of cystic fibrosis transmembrane conductance regulator” (Vertex Pharmaceuticals Incorporated, priority 2020, dated 2025).
